Test results taken from patent publication US10647680B2, “Urea compound, preparation method therefor and medical use thereof” (Ancureall Pharmaceutical (Shanghai) Co., Ltd., priority 2016, dated 2020).
Structures can show the parent of a compound that is named as a salt.

Experiments:
Solubility test = format: physicochemical; conditions: in water at 25° C.±2° C.
Experimental: The fine powder of the test sample was weighed into an appropriate amount of water at 25° C.±2° C. and shaken vigorously for 30 seconds every 5 minutes so that it was fully dissolved within 30 minutes. If no visible solute particles were observed, it was considered completely dissolved. “Readily soluble” means that 1 g of the test sample could be dissolved in 1-10 ml of water; and “soluble” means that 1 g of the test sample could be dissolved in 10-30 ml of water; “slightly soluble” means that 1 g of the test sample could be dissolved in 30-100 ml of water; and “sparingly soluble” means that 1 g of the test sample could be dissolved in 100-1,000 ml of water; “nearly insoluble or insoluble” means that 1 g of the test sample could not be completely dissolved in 10,000 ml of water.

[1] = system: MV4-11 (FLT3 ITD+/+ mutant type); assay: In vitro growth inhibition (GI50), MV4-11; format: cell-based, human; conditions: for GI50: Homo sapiens, MV4-11, Cell lines of leukemia, read-out: GI 50 MV4-11 FLT3 (ITD +/+)
[2] = system: MOLM-13 (FLT3 ITD+/− mutant type); assay: In vitro growth inhibition (GI50), MOLM-13; format: cell-based, human; conditions: for GI50: Homo sapiens, MOLM-13, Cell lines of leukemia, read-out: GI 50 MOLM-13 FLT3 (ITD+/−)
RS4; 11 (FLT3 wild type) = assay: In vitro growth inhibition (GI50), RS4; 11; format: cell-based, human; conditions: Homo sapiens, RS4-11; Cell lines of leukemia; read-out: GI 50 RS4: 11 FLT3 (WT)
[3] = system: K562 (FLT3 negative expression, positive expression of BCR-ABL fusion protein); assay: In vitro growth inhibition (GI50), K562; format: cell-based; conditions: Homo sapiens, Cell lines of leukemia, read-out: GI 50 K562 BCR-ABL
[4] = system: RAMOS (positive expression of Brutons tyrosine protein kinase); assay: In vitro growth inhibition (GI50), RAMOS; format: cell-based; conditions: Homo sapiens, Cell lines of leukemia, read-out: GI 50 Ramos BTK
U937 (FLT3 wild-type) = assay: In vitro growth inhibition (GI50), U937; format: cell-based; conditions: Homo sapiens, U-937; Cell lines of leukemia; read-out: GI 50 U937 FLT 3(WT)
[5] = system: Kasumi-1 (c-Kit N822K mutant type); assay: In vitro growth inhibition (GI50), Kasumi-1; format: cell-based; conditions: Homo sapiens, Cell lines of leukemia, read-out: GI 50 Kasumi-1 Kit (N822K)
Method in brief: (§1)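 Cells in RPMI1640 with 10% FBS, seeded at 5–10×10^4 cells/mL, exposed next day to compound at 5,000 nM down to 0.01 nM (2- or 10-fold dilutions, ≤1% solvent) for 3–5 days at 37 °C. CCK8 absorbance at 450 nm, growth rate relative to pre-treatment and solvent controls, GI50 from concentration–growth curve.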

[6] = system: KG-1 (expressing FGFR1OP2-FGFR1 fusion protein); assay: In vitro growth inhibition (GI50), KG-1; format: cell-based; conditions: Homo sapiens; Cell lines of leukemia; read-out: GI 50 KG-1 FGFR1OP 2-FGFR1
HL-60 (FLT3 wild type) = assay: In vitro growth inhibition (GI50), HL-60; format: cell-based; conditions: Homo sapiens, Cell lines of leukemia, read-out: GI 50 HL60 FLT3 (WT)
Method in brief: as §1

[7] = system: OCI-AML3 (NPMc+ mutant type); assay: In vitro growth inhibition (GI50), OCI-AML3; format: cell-based; conditions: Homo sapiens, OCI-AML-3; Cell lines of leukemia; read-out: GI 50 OCI- AML3 NPMc+
[8] = Stability test: high temperature test (60° C.); format: physicochemical; conditions: exposed at 60° C. for 10 days, HPLC
Experimental: The test samples were placed into an integrated drug stability test chamber (YSEI) in an exposed way at 60° C. for 10 days. Samples were taken on the 5th and 10th days and tested according to the drug stability test indices.
(§2) An appropriate amount of test samples was taken and dissolved in acetonitrile-water (1:1), and quantitatively diluted to a solution of about 0.3 mg/ml. 20 ul of solution was injected into a liquid chromatograph (Agilent 1260 Infinity), the chromatogram was then recorded and calculated according to the percentage area method. The mobile phase was a phosphate buffer and acetonitrile aqueous solution, and then a gradient elution was carried out.

[9] = Stability test: intense light test (4500LX); format: physicochemical; conditions: 4500LX±500LX light for 10 days, HPLC
Experimental: The test samples were placed into an integrated drug stability test chamber (YSEI) in an exposed way under 4500LX±500LX light for 10 days. Samples were taken on the 5th and 10th days and tested according to the drug stability test indices.
as §2

[10] = Stability test: high humidity test (90%); format: physicochemical; conditions: 25° C., relative humidity 90%±5%, 10 days, HPLC
Experimental: The test samples were placed into an integrated drug stability test chamber (YSEI) in an exposed way at 25° C. and relative humidity of 90%±5% for 10 days. Samples were taken on the 5th and 10th days and tested according to the drug stability test indices.
as §2

rat plasma protein = assay: Binding rate to plasma protein of rats (dialysis method); format: in vitro ADME; conditions: dialysis, 4 h, 37° C.; test substance 2 uM, positive control 1 uM
Experimental: The binding rate of compound 77 of the present invention to plasma protein at a rat plasma concentration of 2 uM was evaluated by dialysis method.
Procedure: The DMSO stock solution of compound 77 (10 mM) or the positive control propranolol (USP) was added to 500 uL of blank plasma. The final concentration of test substance in the plasma was 2 uM, and the final concentration of the positive control was 1 uM, in triplicate. 300 uL of prepared plasma samples was added to the plasma chamber, and 500 uL of dialysis buffer was added to the buffer chamber (phosphate buffer solution PBS contained 100 mM sodium phosphate and 150 mM sodium chloride, PH 7.2), sealed, and incubated for 4 h while shaking at 100 rpm, 37° C. After incubation, 50 uL sample was taken from the plasma chamber and buffer chamber, and 50 uL of PBS was added to plasma chamber samples, and 50 uL of blank plasma was added to the buffer chamber samples. Immediately, 3-fold methanol solution containing internal standard was added, to precipitate plasma protein. After centrifugation, the supernatant was taken for LC/MS/MS analysis. The plasma protein binding rate was calculated according to the following formula: % free state=(peak area ratio in the buffer chamber/the peak area ratio in the plasma chamber)×%, % binding state=100%−% free state.

[11] = compared with the control compound AC220

COCCOc1ccc2ncn(-c3ccc(NC(=O)Nc4cc(C(C)(C)C)n[nH]4)cc3)c2c1 [Compound 98, 1-(5-tert-butyl-2H-pyrazol-3-yl)-3-{4-[6-(2-methoxyl-ethoxyl)-benzimidazol-1-yl]-phenyl}-urea]
Solubility (Solubility test; listed as 98 Free base): insoluble (“nearly insoluble or insoluble” means that 1 g of the test sample could not be completely dissolved in 10,000 ml of water)
GI50 [1]: 0.1 to 1 nM
GI50 [2]: 0.1 to 1 nM
GI50 (RS4; 11 (FLT3 wild type)): > 1000 nM
GI50 [3]: > 1000 nM
GI50 [4]: > 1000 nM
GI50 (U937 (FLT3 wild-type)): > 1000 nM
GI50 [5]: > 1000 nM
GI50 [6]: > 1000 nM
GI50 (HL-60 (FLT3 wild type)): > 1000 nM
GI50 [7]: > 1000 nM

COc1cc2ncn(-c3ccc(NC(=O)n4nc(C(C)(C)C)cc4N)cc3)c2cc1OC [Compound 129, 5-amino-3-tert-butyl-pyrazol-1-carboxylic acid [4-(5,6-dimethoxyl-benzimidazol-1-yl)-phenyl]-amide]
Solubility (Solubility test; listed as 129 Free base): insoluble (“nearly insoluble or insoluble” means that 1 g of the test sample could not be completely dissolved in 10,000 ml of water)
GI50 [1]: 1 to 10 nM
GI50 [2]: 1 to 10 nM
GI50 (RS4; 11 (FLT3 wild type)): > 1000 nM
GI50 [3]: > 1000 nM
GI50 [4]: > 1000 nM
GI50 (U937 (FLT3 wild-type)): > 1000 nM
GI50 [5]: > 1000 nM
GI50 [6]: > 1000 nM
GI50 (HL-60 (FLT3 wild type)): > 1000 nM
GI50 [7]: > 1000 nM

CC(C)(C)c1cc(N)n(C(=O)Nc2ccc(-n3cnc4cc(OCCO)ccc43)cc2)n1 [Compound 121, 5-amino-3-tert-butyl-pyrazol-1-carboxylic acid {4-[5-(2-hydroxy-ethoxyl)-benzimidazol-1-yl]-phenyl}-amide]
Solubility (Solubility test; listed as 121 Free base): insoluble (“nearly insoluble or insoluble” means that 1 g of the test sample could not be completely dissolved in 10,000 ml of water)
GI50 [1]: 100 to 1000 nM
GI50 [2]: 100 to 1000 nM
GI50 (RS4; 11 (FLT3 wild type)): > 1000 nM
GI50 [3]: > 1000 nM
GI50 [4]: > 1000 nM
GI50 (U937 (FLT3 wild-type)): > 1000 nM
GI50 [5]: > 1000 nM
GI50 [6]: > 1000 nM
GI50 (HL-60 (FLT3 wild type)): > 1000 nM
GI50 [7]: > 1000 nM

COc1ccc2c(c1)ncn2-c1ccc(NC(=O)Nc2cc(C(C)(C)C)n[nH]2)cc1 [Compound 71 Mesylate, 1-(5-tert-butyl-2H-pyrazol-3-yl)-3-[4-(5-methoxyl-benzimidazol-1-yl)-phenyl]-urea]
Solubility (Solubility test; listed as 71 Mesylate): soluble (“soluble” means that 1 g of the test sample could be dissolved in 10-30 ml of water)
High temperature (60° C.) [8]: stable
Lighting (4500 LX) [9]: stable
High Humidity (90%) [10]: stable

CC(C)(C)c1cc(NC(=O)Nc2ccc(-n3cnc4cc(OCCN5CCOCC5)ccc43)cc2)no1 [Compound 16 Hydrochloride, 1-(5-tert-butyl-isoxazol-3-yl)-3-{4-[5-(2-morpholin-4-yl-ethoxyl)-benzimidazol-1-yl]-phenyl}-urea]
Solubility (Solubility test; listed as 16 Hydrochloride): soluble (“soluble” means that 1 g of the test sample could be dissolved in 10-30 ml of water)
High temperature (60° C.) [8]: stable
Lighting (4500 LX) [9]: stable
High Humidity (90%) [10]: stable

CCCCCCOc1ccc2c(c1)ncn2-c1ccc(NC(=O)n2nc(C(C)(C)C)cc2N)cc1 [Compound 117, 5-amino-3-tert-butyl-pyrazol-1-carboxylic acid [4-(5-hexyloxyl-benzimidazol-1-yl)-phenyl]-amide]
Solubility (Solubility test; listed as 117 Free base): insoluble (“nearly insoluble or insoluble” means that 1 g of the test sample could not be completely dissolved in 10,000 ml of water)
GI50 [1]: 100 to 1000 nM
GI50 [2]: 100 to 1000 nM
GI50 (RS4; 11 (FLT3 wild type)): > 1000 nM
GI50 [3]: > 1000 nM
GI50 [4]: > 1000 nM
GI50 (U937 (FLT3 wild-type)): > 1000 nM
GI50 [5]: > 1000 nM
GI50 [6]: > 1000 nM
GI50 (HL-60 (FLT3 wild type)): > 1000 nM
GI50 [7]: > 1000 nM

CN(C)CCCOc1ccc2c(c1)ncn2-c1ccc(NC(=O)Nc2cc(C(C)(C)C)n[nH]2)cc1 [Compound 81]
Solubility (Solubility test; listed as 81 Free base): insoluble (“nearly insoluble or insoluble” means that 1 g of the test sample could not be completely dissolved in 10,000 ml of water)
GI50 [1]: 0.01 to 0.1 nM
inhibition activity against the growth of MV4-11 cells compared with AC220 [1, 11]: stronger inhibition activity
GI50 [2]: 0.01 to 0.1 nM
inhibition activity against the growth of MOLM-13 cells compared with AC220 [2, 11]: stronger inhibition activity
GI50 (RS4; 11 (FLT3 wild type)): 10 to 100 nM
GI50 [3]: 100 to 1000 nM
GI50 [4]: 100 to 1000 nM
GI50 (U937 (FLT3 wild-type)): 100 to 1000 nM
GI50 [5]: > 1000 nM
GI50 [6]: > 1000 nM
GI50 (HL-60 (FLT3 wild type)): 100 to 1000 nM
GI50 [7]: > 1000 nM

CC(C)NCC(O)COc1cccc2ccccc12 (stereo not shown) [propranolol, reference compound]
binding rate to the rat plasma protein (rat plasma protein): 90.11%

CC(C)(C)c1cc(N)n(C(=O)Nc2ccc(-n3cnc4cc(OCCO)ccc43)cc2)n1 [Compound 121 Mesylate, 5-amino-3-tert-butyl-pyrazol-1-carboxylic acid {4-[5-(2-hydroxy-ethoxyl)-benzimidazol-1-yl]-phenyl}-amide]
Solubility (Solubility test): readily soluble (“Readily soluble” means that 1 g of the test sample could be dissolved in 1-10 ml of water)
